From ChEMBL document CHEMBL4130368, “Thienopyrimidine derivatives exert their anticancer efficacy via apoptosis induction, oxidative stress and mitotic catastrophe” (Eur J Med Chem, 2017)
pIC50: −log10 of the molar value.

Experiments:
[1] = tested on: CHO; assay: Cytotoxicity against CHO cells assessed as reduction in cell survival after 72 hrs by MTT assay; format: ADME, cell-based; settings: Cricetulus griseus
[2] = Antiproliferative activity against human GBM10 cells after 72 hrs by MTT assay; format: functional, cell-based; settings: GBM10, 72 h
[3] = tested on: A2780; assay: Antiproliferative activity against human A2780 cells after 72 hrs by MTT assay; format: functional, cell-based; settings: A2780, 72 h
[4] = tested on: LN-229; assay: Antiproliferative activity against human LN229 cells after 72 hrs by MTT assay; format: functional, cell-based; settings: LN-229, 72 h
[5] = tested on: HCT-15; assay: Antiproliferative activity against human HCT15 cells after 72 hrs by MTT assay; format: functional, cell-based; settings: HCT-15, 72 h
[6] = tested on: HCT-116; assay: Antiproliferative activity against human HCT116 cells after 72 hrs by MTT assay; format: functional, cell-based; settings: HCT-116, 72 h
[7] = tested on: NCI-H460; assay: Antiproliferative activity against human NCI-H460 cells after 24 hrs by MTT assay; format: functional, cell-based; settings: NCI-H460, 24 h
[8] = tested on: A549; assay: Antiproliferative activity against human A549 cells after 24 hrs by MTT assay; format: functional, cell-based; settings: A549, 24 h
[9] = tested on: U-251; assay: Antiproliferative activity against human U251 cells after 24 hrs by MTT assay; format: functional, cell-based; settings: U-251, 24 h
[10] = tested on: KB; assay: Antiproliferative activity against human KB cells by MTT assay; format: functional, cell-based
[11] = tested on: PC-3; assay: Antiproliferative activity against human PC3 cells after 72 hrs by MTT assay; format: functional, cell-based; settings: PC-3, 72 h
[12] = tested on: HepG2; assay: Antiproliferative activity against human HepG2 cells after 72 hrs by MTT assay; format: functional, cell-based; settings: HepG2, 72 h

| pIC50 [3] | pIC50 [5] | pIC50 [6] | pIC50 [7] | pIC50 [8] | pIC50 [9] | pIC50 [10] | pIC50 [11] | pIC50 [12] | SMILES | pIC50 [1] | pIC50 [2] | pIC50 [4] |
| --- | --- | --- | --- | --- | --- | --- | --- | --- | --- | --- | --- | --- |
| 5.02 | < 4.00 | < 4.00 | – | – | – | – | – | – | COc1cccc(-c2nc3sc4c(c3c(=O)[nH]2)CCCC4)c1 | < 4.00 | < 4.00 | < 4.00 |
| < 4.00 | < 4.00 | < 4.00 | – | – | – | – | – | – | N#Cc1ccc(-c2nc3sc4c(c3c(=O)[nH]2)CCCC4)cc1 | < 4.00 | < 4.00 | < 4.00 |
| < 4.00 | 5.32 | 5.08 | – | – | – | – | – | – | Oc1nc(-c2ccccc2)nc2sc3c(c12)CCCC3 | < 4.00 | 4.92 | 4.74 |
| 4.54 | 4.04 | 4.11 | – | – | – | – | – | – | O=c1[nH]c(-c2ccc(Cl)cc2Cl)nc2sc3c(c12)CCCC3 | < 4.00 | 4.00 | 4.05 |
| < 4.00 | 4.72 | 4.47 | – | – | – | – | – | – | Oc1nc(-c2ccc(Cl)cc2)nc2sc3c(c12)CCCC3 | < 4.00 | 4.48 | 4.47 |
| – | – | – | 5.11 | 4.72 | 4.88 | – | – | – | Nc1nc(NNC(=O)c2ccncc2)nc2sc3c(c12)CCCC3 | – | – | – |
| 5.72 | 4.96 | 4.71 | – | – | – | – | – | – | COc1ccc(-c2nc(O)c3c4c(sc3n2)CCCC4)cc1OC | < 4.00 | 4.90 | 4.84 |
| 4.06 | < 4.00 | < 4.00 | – | – | – | – | – | – | Cc1ccc(-c2nc(O)c3c4c(sc3n2)CCCC4)cc1 | < 4.00 | 4.16 | 4.00 |
| < 4.00 | 4.48 | 4.47 | – | – | – | – | – | – | COc1cccc(-c2nc3sc4c(c3c(=O)[nH]2)CCCC4)c1O | < 4.00 | 4.23 | 4.31 |
| – | – | – | – | – | – | 4.72 | – | – | CCCCOc1nc2sc3c(c2c(=O)n1Cc1ccccc1)CCCC3 | – | – | – |
| < 4.00 | 4.18 | 4.15 | – | – | – | – | – | – | O=[N+]([O-])c1ccc(-c2nc(O)c3c4c(sc3n2)CCCC4)cc1 | < 4.00 | 4.29 | 4.35 |
| 5.14 | 4.58 | 4.65 | – | – | – | – | – | – | COc1cc(OC)cc(-c2nc(O)c3c4c(sc3n2)CCCC4)c1 | < 4.00 | 4.38 | 4.32 |
| 4.04 | 5.72 | 5.55 | – | – | – | – | – | – | O=c1[nH]c(-c2cccc([N+](=O)[O-])c2)nc2sc3c(c12)CCCC3 | < 4.00 | 4.90 | 5.08 |
| < 4.00 | 5.07 | 5.04 | – | – | – | – | – | – | O=c1[nH]c(-c2ccc(F)cc2)nc2sc3c(c12)CCCC3 | < 4.00 | 4.84 | 4.77 |
| – | 5.27 | – | – | – | – | – | 5.27 | – | O=C(CSc1nc2sc3c(c2c(=O)n1Cc1ccccc1)CCCC3)NNC(=S)Nc1ccccc1 | – | – | – |
| – | – | – | – | – | – | – | – | 4.83 | O=c1c2c3c(sc2ncn1Cc1ccc(Br)cc1)CCCC3 | – | – | – |
